Consider three substances from US10246488B2, “Use of inhibitory peptides for the treatment of inflammatory diseases” (Yeda Research and Development Co. Ltd., priority 2013, dated 2019).

Ends that are not written are not given here. * marks the point of attachment. Myristoyl = CCCCCCCCCCCCCC(=O)*

One assay has as its system DSS-induced Colitis. The assay is described as follows: DSS-induced colitis model. Type of assay: in vivo. The following applies: male C57BL mice, 15 mg/Kilo I.V every 48 hours, DSS 1.25% in drinking water, 7 days, compared with control peptide. The procedure: FIGS. 17A-17C illustrate the use of inhibitory peptide as a potential therapeutic agent in colitis model. 21 male C57BL mice treated (I.V every 48 hours) with either peptide (15 mg/Kilo), scramble peptide (15 mg/Kilo) or DMSO (2%). Colitis was induced using DSS (1.25% in drinking water) and mice were sacrificed 7 days post induction. (A-C). Colitis was evaluated using endoscopic imaging and scored for the number of lesions in the colon and weight of mice.
In vivo experiment: 21 male C57BL mice were weighed then injected (I.V) with either peptide (15 mg/Kilo), scramble peptide (15 mg/Kilo) or DMSO (2%). Twenty-four hours post injection drinking water of the mice was replaced with water containing DSS (1.25%), peptide, scramble peptide or DMSO were injected every forty-eight hours. Mice were sacrificed seven days post replacement of drinking water, and colitis was assessed using endoscopy and weight of mice.

The test system of the next assay is JNK1/2 and p38α/β. The assay is described as follows: Immunofluorescence of stimulated nuclear translocation of JNK1/2 and p38α/β in HeLa cells. Type of assay: cell-based. The following applies: for stimuli-dependent nuclear translocation of JNK1/2 and p38α/β: HeLa cells, peptide 10 μM applied prior to stimulation, Anisomycin 0.5 μg/ml. How it is done: FIGS. 2A-2C illustrate that Imp3, 7 and 9 are required for JNK and p38 translocation and induced transcription. (A) Si RNAs of Imp3, 7, 9, but not Imp5, inhibit the stimulated JNK and p38 nuclear translocation. HeLa cells were grown on cover slides to 30% confluence. si RNAs of the indicated Imps and si Control supplied by the company (si Scr, negative control) were then transfected to the cells using Dharmafect according to the manufacturer's instructions. Forty eight hrs after transfection, the cells were serum starved, then either stimulated with Anisomycin (0.5 μg/ml, 15 min), or left untreated (NT) as indicated. The cells were then fixed, stained using the indicated (left) anti MAPK Abs and visualized using a fluorescent microscope. (B) Quantification of JNKs/p38s nuclear localization prior and upon stimulation. Data shown represents mean±S.E. The significance of Imp3 vs. Imp7/Imp9 (*) was p<0.0003. The significance of stimulated Imp3/7/9 vs Scr was p<0.00001 (C) Si RNA of Imp3, 7, 9 inhibit the activation of downstream transcription factor targets of JNKs/p38s. HeLa cells were transfected with si RNAs of the indicated Imps and si control supplied by the manufacturer (si Scr, negative control) using Dharmafect according to the manufacturer instructions. Forty eight hrs after transfection, the cells were serum starved, and then stimulated with Anisomycin (Anis 0.5 μg/ml) for the indicated times or left untreated (NT). Cell extracts were subjected to a Western blot analysis with anti pJUN, pMEF2A, pATF2, indicated Imps, and tubulin Abs.
HeLa cells were grown on slides to 70% confluence, serum starved (0.1% FBS, 16 hrs), and then either incubated with the inhibitory peptide (Peptide, 10 μM) or scrambled peptide (Scr peptide, 10 μM), cells were then treat with Anisomycin (Anis, 0.5 μg/ml) or left untreated (NT). Cells were fixed, and stained with anti JNK1, JNK2, p38α or p38β Abs as indicated, and DAPI to detect nuclei. The slides were visualized using a fluorescent microscope. […] HeLa cells were grown to 70% confluence, serum starved (0.1% FBS, 16 hrs), and then either incubated with the inhibitory peptide (Peptide, 10 μM), scrambled peptide (Scr peptide, 10 μM), or DMSO, followed by treatment with Anisomycin (Anis, 0.5 μg/ml) or mock control (NT). Cell extracts were then subjected to Co-IP with anti JNK1, JNK2, p38α, p38β Abs. The interacting Imp7 was detected by Western blot with the indicated anti Imps Abs. Amount of IPed MAPKs was detected by the anti JNK1, JNK2, p38α and p38β Abs as indicated. […]
FIGS. 19A-19C illustrate that myristoylated peptides inhibit the stimulation dependent nuclear translocation of p38. […] The nuclei were detected using DAPI and slides were visualized using a spinning disc confocal microscope (Zeiss, ×100 magnification). […]

Assay [1] addresses T1, interaction of JNK1/2 and p38α/β with Imp7 (Homo sapiens, UniProt O95373).
T1 construct: endogenous in cells; host or cells: HeLa
In words: Co-immunoprecipitation of MAPKs with importins from extracts of treated HeLa cells. As to conditions: for interaction of p38 with Imp7 (CoIP): HeLa cells pre-incubated with modified peptide 2 hours, anisomycin 0.5 μg/ml 15 min; for Imp7/9 interactions of the MAPKs examined (JNK1/2 and p38α/β), Co-IP: HeLa cells, peptide 10 μM applied prior to stimulation, Anisomycin 0.5 μg/ml. Type of assay: cell-based. The procedure:
HeLa cells were grown on slides to 70% confluence, serum starved (0.1% FBS, 16 hrs), and then either incubated with the inhibitory peptide (Peptide, 10 μM) or scrambled peptide (Scr peptide, 10 μM), cells were then treat with Anisomycin (Anis, 0.5 μg/ml) or left untreated (NT). Cells were fixed, and stained with anti JNK1, JNK2, p38α or p38β Abs as indicated, and DAPI to detect nuclei. The slides were visualized using a fluorescent microscope. […] HeLa cells were grown to 70% confluence, serum starved (0.1% FBS, 16 hrs), and then either incubated with the inhibitory peptide (Peptide, 10 μM), scrambled peptide (Scr peptide, 10 μM), or DMSO, followed by treatment with Anisomycin (Anis, 0.5 μg/ml) or mock control (NT). Cell extracts were then subjected to Co-IP with anti JNK1, JNK2, p38α, p38β Abs. The interacting Imp7 was detected by Western blot with the indicated anti Imps Abs. Amount of IPed MAPKs was detected by the anti JNK1, JNK2, p38α and p38β Abs as indicated.
(A) Myristiolated peptide was modified (replacement of 3 residues to alanin) Myr-KPERYQNLSPVGSGA—SEQ ID NO: 9; Myr-KPERYQNLSPVAAAA—SEQ ID NO: 10. (B) Hela cells were pre-incubated with modified peptide (2 hours) then either stimulated with anisomycin (Anis, 0.5 μg/ml, 15 min) or left untreated. Cell extracts were then subjected to CoIP with anti p38a . The interacting Imp7 or IPed p38 were detected by Western blot with indicated Abs.
Co-Immunoprecipitation: HeLa cells were grown to subconfluency, serum-starved (0.1% FBS for 16 h) and then stimulated or treated with other drugs. Cell extracts were produced as previously described and incubated for 2 hours (4° C., with rotation) with A/G-agarose beads (Santa Cruz Biotechnology) pre-linked with specific Abs (1 hrs, 23° C.). The bound A/G beads were washed three times with ice-cold washing buffer. The IPed beads were then resuspended with 1.5× sample buffer and boiled; the resolved proteins were analyzed by Western blotting with the indicated Abs.
CoIP: Cell extracts were produced and incubated for 2 hr (4° C., with rotation) with A/G-agarose beads pre-linked with specific Abs (1 hr, 23° C.). The bound A/G beads were washed, resuspended (1.5× sample buffer), boiled and subjected to Western blotting.

The test system of a further assay is MAPKs. In words: Western blot of stimulation-dependent activation of MAPKs in HeLa cells. Type of assay: cell-based. As to conditions: HeLa cells pre-incubated with peptide, Anisomycin 0.5 μg/ml or TPA 250 nM. The procedure: HeLa cells were grown to 70% confluence, serum starved and pre-incubated with either new peptide (NP), peptide or scrambled peptide and then either stimulated with Anisomycin (Anis 0.5 μg/ml), TPA (250 nM) or left untreated (NT). Cell extracts were produced and subjected to Western blot analysis with the indicated Abs.

Setting [2] is: listed as 14 amino acid myristoylated peptide.

T1 sequence (O95373 whole entry): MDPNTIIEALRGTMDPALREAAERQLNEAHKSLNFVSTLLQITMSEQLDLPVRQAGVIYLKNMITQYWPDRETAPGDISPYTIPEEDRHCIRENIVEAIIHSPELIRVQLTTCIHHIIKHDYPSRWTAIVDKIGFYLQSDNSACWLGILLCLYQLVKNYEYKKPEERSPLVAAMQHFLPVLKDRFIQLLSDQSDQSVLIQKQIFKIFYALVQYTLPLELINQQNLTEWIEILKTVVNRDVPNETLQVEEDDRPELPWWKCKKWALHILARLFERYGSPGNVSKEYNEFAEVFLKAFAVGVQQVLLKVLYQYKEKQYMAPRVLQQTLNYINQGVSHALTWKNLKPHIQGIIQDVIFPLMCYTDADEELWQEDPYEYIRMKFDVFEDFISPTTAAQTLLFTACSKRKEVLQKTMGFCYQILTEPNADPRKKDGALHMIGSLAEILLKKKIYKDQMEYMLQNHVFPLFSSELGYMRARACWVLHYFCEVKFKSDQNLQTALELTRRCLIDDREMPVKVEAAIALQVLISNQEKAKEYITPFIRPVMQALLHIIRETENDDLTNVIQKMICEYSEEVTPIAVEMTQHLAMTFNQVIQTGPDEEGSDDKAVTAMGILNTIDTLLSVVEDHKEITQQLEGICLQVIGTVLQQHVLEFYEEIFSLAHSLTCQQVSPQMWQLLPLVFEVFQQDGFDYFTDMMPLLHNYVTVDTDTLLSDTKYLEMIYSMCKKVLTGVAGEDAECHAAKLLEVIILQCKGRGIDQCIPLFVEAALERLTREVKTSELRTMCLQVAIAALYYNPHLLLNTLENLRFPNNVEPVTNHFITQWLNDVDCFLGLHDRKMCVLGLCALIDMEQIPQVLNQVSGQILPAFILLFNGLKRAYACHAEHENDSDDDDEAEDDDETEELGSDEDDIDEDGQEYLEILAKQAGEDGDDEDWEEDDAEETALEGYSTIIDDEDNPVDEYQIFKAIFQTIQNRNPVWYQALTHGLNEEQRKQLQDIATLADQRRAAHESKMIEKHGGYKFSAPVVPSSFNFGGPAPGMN

For “Myr-KPERYQNLSPVGSGA (Myristoyl-KPERYQNLSPVGSGA)”, the “DSS-induced Colitis (average weight loss and number of lesions in the colon)” value in the assay on DSS-induced Colitis is recorded as “reduced DSS-induced Colitis”.

Consider “Myr-KPERYQNLSPVAAAA (Myristoyl-KPERYQNLSPVAAAA) [myristoylated peptide modified by replacement of 3 residues to alanin]”, for which the “stimulation-induced nuclear translocation of JNK and p38 MAPKs” value with JNK1/2 and p38α/β (HeLa cells pre-incubated with peptide, Anisomycin 0.5 μg/ml 15 min, spinning disc confocal microscope) is “prevented”. Moreover, the “interaction of p38 with Imp7 (CoIP)” value in assay [1] is on record as “blocks the interaction”; in assay [1] (listed as newly designed peptide) it was “inhibited”. The “stimulation-dependent activation (kinase activity) of MAPKs” value with MAPKs is recorded as “without affecting”.

For “Myr-PERYQNLSPVGSGA (Myristoyl-PERYQNLSPVGSGA) [14 amino acid myristoylated peptide based on residues 21-34 of p38α]”, the “stimuli-dependent nuclear translocation of JNK1/2 and p38α/β” value with JNK1/2 and p38α/β is “prevented the nuclear translocation”; in the assay on JNK1/2 and p38α/β (setting [2]), “prevented the nuclear translocation”; with JNK1/2 and p38α/β (listed as inhibitory peptide), “inhibits the stimuli-dependent nuclear translocation”. In addition, the “Imp7/9 interactions of the MAPKs examined (JNK1/2 and p38α/β), Co-IP” value in assay [1] is reported as “prevented”; in assay [1] (setting [2]) it was “prevented”; in assay [1] (listed as inhibitory peptide), “inhibits the interaction”.
